Data: patent publication US12168643B2, “Compounds for the treatment of neuromuscular disorders” (NMD PHARMA A/S, priority 2019, dated 2024)
Marks after values point to notes of the source that are not given here.

What was measured:
[1] = tested on: isolated rat soleus muscles; test: Recovery of nerve-stimulated contractile force in isolated rat soleus nerve-muscle preparations exposed to tubocurarine; assay type: cell-based; details: 50 μM compound, 40 mins exposure, after 90 mins 115 nM tubocurarine
Experimental: FIG. 2. […] Force traces from a representative muscle stimulated to contract in 1) control condition before addition of neuromuscular blocking agent, 2) the force response to stimulation after 90 minutes incubation with Tubocurarine. […] The traces presented in panel A (1, 2, 3), correspond to the dotted lines in panel B, respectively.
Recovery of force is quantified as the percentage of the force prior to tubocurarine that is recovered by the compound.
The current disclosure relates to compounds that inhibit CIC-1 ion channels and increase muscle excitability and thereby improve muscle function in clinical conditions where muscle activation is failing. Such conditions result in loss of contractile function of skeletal muscle, weakness and excessive fatigue. In this series of experiments the compounds were tested for their ability to restore contractile function of isolated rat muscle when the neuromuscular transmission had been compromised akin to neuromuscular disorders.
Experimentally, soleus muscles from 4-5 week old rats were isolated with the motor nerve remaining attached. The nerve-muscle preparations were mounted in experimental setups that enabled electrical stimulation of the motor nerve. Stimulation of the motor nerve led to activation of the muscle fibres and ensuing force production that was recorded.
After mounting the nerve-muscle preparation in the experimental setup, the contractile function of the muscle was initially assessed under the control conditions (FIG. 2A). […] The experimental condition mimics the failing neuromuscular transmission in a range of neuromuscular disorders. After addition of tubocurarine the contractile force declined over the next 90 mins to 10-50% of the control force. 50 μM of the test compound was then added and the contractile force recovered despite the continued presence of tubocurarine. To quantify the ability of the compound to restore force the percentage of the initial force that was restored was determined after 40 mins of compound exposure (FIG. 2B) and the point increase is reported in Table 3.

[2] = molecular target: T1, CIC-1 ion channel (Rattus norvegicus, UniProt P35524); test: Electrophysiological measurement (three micro-electrode Gm) of compound inhibition of CIC-1 in rat soleus muscle fibres; assay type: cell-based; details: whole rat soleus muscle, approx. 30° C., four increasing concentrations; mean ± spread, n = experiments; read-out: EC50 (inhibition of CIC-1 ion channel, reduction of Gm)
T1 construct: from tissue; host or cells: whole soleus muscle of 12-14 week old Wistar rats
T1 sequence (P35524 1-994): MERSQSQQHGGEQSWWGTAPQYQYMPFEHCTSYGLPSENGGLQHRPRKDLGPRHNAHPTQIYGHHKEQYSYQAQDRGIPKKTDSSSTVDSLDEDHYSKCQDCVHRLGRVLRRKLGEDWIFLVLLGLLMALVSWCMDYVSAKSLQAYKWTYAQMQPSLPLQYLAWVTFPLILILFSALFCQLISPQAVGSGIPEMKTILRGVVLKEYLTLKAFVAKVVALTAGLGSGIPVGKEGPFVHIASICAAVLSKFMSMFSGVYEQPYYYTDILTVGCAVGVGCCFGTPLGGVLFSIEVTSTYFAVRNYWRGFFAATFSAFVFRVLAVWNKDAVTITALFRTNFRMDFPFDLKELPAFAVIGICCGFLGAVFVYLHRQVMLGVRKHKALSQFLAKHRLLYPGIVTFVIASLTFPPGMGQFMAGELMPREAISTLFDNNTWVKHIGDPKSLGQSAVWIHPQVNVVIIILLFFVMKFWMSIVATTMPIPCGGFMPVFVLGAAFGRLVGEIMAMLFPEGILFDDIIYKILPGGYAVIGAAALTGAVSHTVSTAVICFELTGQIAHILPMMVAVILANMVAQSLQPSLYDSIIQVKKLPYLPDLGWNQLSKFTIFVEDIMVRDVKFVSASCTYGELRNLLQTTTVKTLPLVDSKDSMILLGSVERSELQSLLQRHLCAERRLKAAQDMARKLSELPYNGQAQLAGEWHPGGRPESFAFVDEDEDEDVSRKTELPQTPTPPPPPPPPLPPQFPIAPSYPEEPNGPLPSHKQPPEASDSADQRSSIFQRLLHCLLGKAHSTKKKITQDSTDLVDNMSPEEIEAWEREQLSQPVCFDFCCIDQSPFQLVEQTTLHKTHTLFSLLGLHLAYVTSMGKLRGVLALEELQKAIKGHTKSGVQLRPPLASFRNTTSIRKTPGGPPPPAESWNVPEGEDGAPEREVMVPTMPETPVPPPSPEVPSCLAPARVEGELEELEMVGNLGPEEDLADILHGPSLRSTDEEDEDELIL

[3] = tested on: hindlimb muscle force; test: In situ isometric hindlimb force in anaesthetised rats with neuromuscular transmission partially inhibited by Cisatracurium; assay type: in vivo; details: 47.2 mg/kg i.v., 80 Hz stimulation, Cisatracurium infusion, female Lewis rats
Experimental: Isometric hindlimb force was measured in 12-week old female Lewis rats in the presence and absence of compound.
Rats were placed under anesthesia with isoflurane (2-4%), intubated and subsequently connected to a micro ventilator (Microvent 1, Hallowell EMC, US). Two stimulation electrodes were inserted through the skin to stimulate the sciatic nerve. A small incision was made proximal to the ankle, to expose the Achilles tendon, which was tied by cotton string, and connected to a force transducer (Fort250, World Precision Instruments) with adjustable position (Vernier control). The Achilles tendon was then cut distal to the attached cotton string. […]
Muscle contractile properties were assessed by applying an electrical current (under supramaximal voltage conditions) to the nerve and recording the force generated by the muscle. The muscle was stretched until maximal force was obtained, when assessed by 2 Hz stimulation. Isometric force was measured every 30 seconds at 12 Hz (Twitch), 10 pulses, and at every 5 minutes at 80 Hz (Tetanic) for 1 second (80 pulses). […] The effect of test article was assessed on its ability to increase force generated from the stimulation pattern applied. The effect was assessed in the ability to increase force per se (tetanic, 80 Hz, stimulation), and the ratio between individual twitch peaks (12 Hz stimulation). […]

COC[C@H](Oc1cc(F)c(Br)cc1C1CC1)C(=O)O [Compound A-2, (2S)-2-(4-bromo-2-cyclopropyl-5-fluorophenoxy)-3-methoxypropanoic acid]
Point increase (%) of initial force that was restored [1]: 22.3 ± 3.8%

COC[C@H](Oc1ccc(Br)cc1C1CCC1)C(=O)O [Compound A-6, (2S)-2-(4-bromo-2-cyclobutylphenoxy)-3-methoxypropanoic acid]
Point increase (%) of initial force that was restored [1]: 35.6 ± 8.3% | EC50 [2]: 3.2 ± 2.1 µM

COC[C@@H](Oc1ccc(Br)cc1C1CC1)C(=O)O (single isomer, unassigned) [(2R)-A-1]
Point increase (%) of initial force that was restored [1]: 0.2%

COC[C@H](Oc1ccc(Br)cc1C1CC1)C(=O)O [Compound A-1, (2S)-2-(4-Bromo-2-cyclopropylphenoxy)-3-methoxypropanoic acid]
increase in tetanic force [3]: 85% | Point increase (%) of initial force that was restored [1]: 36.3* % | EC50 [2]: 3.7 ± 0.2 µM

COC[C@@H](Oc1ccc(Br)cc1C1CCC1)C(=O)[O-].[Na+] [(2R)-A-6, Sodium (R)-2-(4-bromo-2-cyclobutylphenoxy)-3-methoxypropanoate]
Point increase (%) of initial force that was restored [1]: −4.1 ± 1.4%
